Experiment [1] has as its target rat TAAR1 (Rattus norvegicus (Rat), UniProt Q923Y9). Put plainly: Radioligand binding assay on rat TAAR1. An outline of the steps: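 Membranes from HEK293 cells stably expressing rat TAAR1, with Kd checked per batch by saturation. Competition with ³H-(S)-4-[(ethyl-phenyl-amino)-methyl]-4,5-dihydro-oxazol-2-ylamine, compounds 10 pM–10 μM in duplicate, 1 hr at 4 °C. Filtration then scintillation counting; nonspecific binding defined with 10 μM unlabeled ligand.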

For experiment [2], the target named is mouse TAAR1 (Mus musculus (Mouse), UniProt Q923Y8). Put plainly: Radioligand binding assay on mouse TAAR1. An outline of the steps:
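Displacement of the tritiated oxazol-2-ylamine radioligand was measured by filtration and scintillation counting after 1 h incubation at 4 °C. Test concentrations ran 10 pM–10 μM in duplicate, with 10 μM cold ligand giving nonspecific binding. The receptor source was membranes of a stable mouse TAAR1 HEK293 line.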

Setting [3] is: rat TAAR1, HEK-293 membranes, second value of cell mouse/rat, read-out: Ki (μM) rat.
Setting [4] is: mouse TAAR1, HEK-293 membranes, first value of cell mouse/rat, read-out: Ki (μM) mouse.

For 34 compounds, Ki results are on record in patent US9452980B2, “Substituted benzamides” (Hoffmann-La Roche Inc., priority 2009, dated 2016).

Structures can show the parent of a compound that is named as a salt. Where two headings read alike, the source gives them in different places.

In general, Ki refers to the equilibrium dissociation constant of an inhibitor or competing ligand from its target.

Chain of mouse TAAR1 (Q923Y8 whole entry): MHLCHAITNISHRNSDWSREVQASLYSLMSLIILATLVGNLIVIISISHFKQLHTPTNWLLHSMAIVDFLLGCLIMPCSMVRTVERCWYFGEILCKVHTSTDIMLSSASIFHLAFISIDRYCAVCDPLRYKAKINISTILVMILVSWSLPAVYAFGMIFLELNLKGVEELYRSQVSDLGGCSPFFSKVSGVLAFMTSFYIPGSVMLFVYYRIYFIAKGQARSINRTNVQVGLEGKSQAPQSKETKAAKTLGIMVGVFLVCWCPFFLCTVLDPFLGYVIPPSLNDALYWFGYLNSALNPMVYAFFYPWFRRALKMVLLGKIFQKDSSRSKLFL
Chain of rat TAAR1 (Q923Y9 whole entry): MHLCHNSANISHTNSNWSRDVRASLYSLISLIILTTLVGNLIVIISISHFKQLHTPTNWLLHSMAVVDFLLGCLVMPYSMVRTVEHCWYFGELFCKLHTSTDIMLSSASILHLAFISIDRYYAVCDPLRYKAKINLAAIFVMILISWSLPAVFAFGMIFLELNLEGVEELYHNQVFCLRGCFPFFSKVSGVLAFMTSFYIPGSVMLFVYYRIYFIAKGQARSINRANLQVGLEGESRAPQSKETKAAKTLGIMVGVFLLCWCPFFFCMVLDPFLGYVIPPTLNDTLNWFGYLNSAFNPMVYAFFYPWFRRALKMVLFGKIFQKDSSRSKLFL

In the case of `O=C(Nc1ccc(CCC2CCCNC2)cc1)c1ncc(F)cc1F` (racemic) [Example 135, (RS)-3,5-Difluoro-pyridine-2-carboxylic acid [4-(2-piperidin-3-yl-ethyl)-phenyl]-amide hydrochloride], the Ki came to 0.0134 µM in experiment [1] (setting [3]) and 1.27 µM in experiment [2] (setting [4]).

On to `COc1ccc(C(=O)Nc2ccc(C3CNCCO3)cc2)cc1` (racemic) [Example 190, (RS)-4-Methoxy-N-(4-(morpholin-2-yl)phenyl)benzamide hydrochloride], for which the figures for the Ki in experiment [1] (setting [3]) and in experiment [2] (setting [4]) were 0.0021 µM and 0.0501 µM, respectively.

On to `O=C(Nc1ccc(C2CCNC2)cc1)c1ccc(OCC(F)(F)F)nc1` (racemic) [Example 89, (RS)—N-(4-Pyrrolidin-3-yl-phenyl)-6-(2,2,2-trifluoro-ethoxy)-nicotinamide hydrochloride], for which the Ki stood at 0.006 µM in experiment [1] (setting [3]) and 0.0059 µM in experiment [2] (setting [4]).

Consider `O=C(Nc1ccc([C@@H]2CCCNC2)cc1)c1ccc(OCC(F)(F)F)nc1` [Example 224, (S)—N-(4-(Piperidin-3-yl)phenyl)-6-(2,2,2-trifluoroethoxy)nicotinamide hydrochloride], for which the Ki in experiment [1] (read-out: Ki (μM) rat) worked out at 0.0029 µM; in experiment [2] (setting [4]) it was 0.051 µM.

Consider `CCC(C(=O)Nc1ccc(C2CCNC2)cc1)c1ccccc1` (racemic) [Example 38, (RS)-2-Phenyl-N—((RS)-4-pyrrolidin-3-yl-phenyl)-butyramide], for which the Ki in experiment [1] (setting [3]) stood at 0.0606 µM; in experiment [2] (setting [4]), 0.0407 µM.

Take `O=C(Nc1ccc([C@@H]2CNCCO2)cc1)c1ccc(Cl)cc1` [Example 143, 4-Chloro-N—((R)-4-morpholin-2-yl-phenyl)-benzamide hydrochloride]: the values for the Ki in experiment [1] (read-out: Ki (μM) rat) and in experiment [2] (read-out: Ki (μM) mouse) were 0.0006 µM and 0.0054 µM, respectively.

With `O=C(Nc1ccc([C@@H]2CNC[C@@H]2F)cc1)c1ccc(Cl)cc1` (racemic) [Example 69, 4-Chloro-N-[4-((3RS,4RS)-4-fluoro-pyrrolidin-3-yl)-phenyl]-benzamide hydrochloride], the Ki in experiment [1] (setting [3]) amounted to 0.023 µM; in experiment [2] (setting [4]), 0.0048 µM.

Take `CCCc1ccc(C(=O)Nc2ccc([C@@H]3CCCNC3)cc2)cn1` [Example 289, (S)—N-(4-(Piperidin-3-yl)phenyl)-6-propylnicotinamide]: the Ki in experiment [1] (read-out: Ki (μM) rat) turned out to be 0.0027 µM; in experiment [2] (setting [4]), 0.143 µM.

Regarding `CCc1cnc(C(=O)Nc2ccc([C@@H]3CCCNC3)cc2)cn1` [Example 274, (S)-5-Ethyl-N-(4-(piperidin-3-yl)phenyl)pyrazine-2-carboxamide hydrochloride], the Ki in experiment [1] (setting [3]) came out at 0.0174 µM; in experiment [2] (setting [4]), 2.51 µM.

As to `O=C(Nc1ccc(Cl)cc1)Nc1ccc(C2CCNC2)cc1` (racemic) [Example 5, (RS)-1-(4-Chloro-phenyl)-3-(4-pyrrolidin-3-yl-phenyl)-urea hydrochloride], the Ki in experiment [1] (setting [3]) came out at 0.0027 µM; in experiment [2] (setting [4]), 0.0015 µM.

In the case of `O=C(Nc1ccc(C2CCCNC2)cc1)c1cccc(Cl)c1` (racemic) [Example 92, (RS)-3-Chloro-N-(4-piperidin-3-yl-phenyl)-benzamide hydrochloride], the Ki in experiment [1] (setting [3]) and in experiment [2] (setting [4]) was 0.0238 µM in each case.

Consider `O=C(Nc1ccc([C@@H]2CCCNC2)cc1)OCc1ccc(Cl)cc1` [Example 240, (S)-4-chlorobenzyl 4-(piperidin-3-yl)phenylcarbamate hydrochloride], for which the Ki in experiment [1] (setting [3]) came to 0.0009 µM; in experiment [2] (setting [4]), 0.0146 µM.

For the compound `CCOc1ccc(C(=O)Nc2ccc([C@@H]3CCCNC3)cc2)cn1` [Example 256, (S)-6-Ethoxy-N-(4-(piperidin-3-yl)phenyl)nicotinamide], the Ki worked out at 0.012 µM in experiment [1] (setting [3]) and 1.17 µM in experiment [2] (setting [4]).

Take `O=C(Nc1ccc(C2CCCNC2)cc1)c1ccc(Cl)cc1Cl` (racemic) [Example 99, (RS)-2,4-Dichloro-N-(4-piperidin-3-yl-phenyl)-benzamide hydrochloride]: the figures for the Ki in experiment [1] (setting [3]) and in experiment [2] (setting [4]) were 0.0501 µM and 0.013 µM, respectively.

On to `N#Cc1ccc(C(=O)Nc2ccc(C3CCNC3)cc2)cc1` (racemic) [Example 55, (RS)-4-Cyano-N-(4-pyrrolidin-3-yl-phenyl)-benzamide hydrochloride], for which the values for the Ki in experiment [1] (setting [3]) and in experiment [2] (read-out: Ki (μM) mouse) were 0.0745 µM and 0.0048 µM, respectively.

Take `Cn1cc(-c2nc(C(=O)Nc3ccc(C4CNCCO4)cc3)cs2)cn1` (racemic) [Example 296, (RS)-2-(1-Methyl-1H-pyrazol-4-yl)-N-(4-(morpholin-2-yl)phenyl)thiazole-4-carboxamide hydrochloride]: the inhibition constant Ki turned out to be 0.0847 µM in experiment [1] (setting [3]) and 0.0645 µM in experiment [2] (setting [4]).

On to `O=C(Nc1ccc([C@H]2CNCCO2)cc1)c1cccc(Cl)c1` [Example 263, (S)-3-Chloro-N-(4-(morpholin-2-yl)phenyl)benzamide hydrochloride], for which the results for the Ki in experiment [1] (read-out: Ki (μM) rat) and in experiment [2] (read-out: Ki (μM) mouse) were 0.0011 µM and 0.0152 µM, respectively.

As to `CSc1cccc(C(=O)Nc2ccc([C@@H]3CCCNC3)cc2)c1` [Example 259, (S)-3-(Methylthio)-N-(4-(piperidin-3-yl)phenyl)benzamide], the Ki in experiment [1] (read-out: Ki (μM) rat) was determined as 0.0009 µM; in experiment [2] (setting [4]), 0.044 µM.

For `O=C(Nc1ccc(CCC2CCCCN2)cc1)c1ccc(Cl)c(Cl)c1` (racemic) [Example 176, (RS)-3,4-Dichloro-N-(4-(2-(piperidin-2-yl)ethyl)phenyl)benzamide hydrochloride], the Ki in experiment [1] (setting [3]) was found to be 0.001 µM; in experiment [2] (setting [4]), 0.0253 µM.

`O=C(Nc1ccc(C2CCNC2)cc1)Nc1ccc(C(F)(F)F)cc1` (racemic) [Example 27, (RS)-1-(4-Pyrrolidin-3-yl-phenyl)-3-(4-trifluoromethyl-phenyl)-urea hydrochloride]: the Ki in experiment [1] (setting [3]) turned out to be 0.0015 µM; in experiment [2] (setting [4]) it was 0.0013 µM.

For the compound `O=C(Nc1ccc(C2CCNC2)cc1)c1cc2ccccc2c(Cl)n1` (racemic) [Example 108, (RS)-1-Chloro-isoquinoline-3-carboxylic acid (4-pyrrolidin-3-yl-phenyl)-amide hydrochloride], the inhibitory constant (Ki) in experiment [1] (setting [3]) amounted to 0.0081 µM; in experiment [2] (setting [4]), 0.0046 µM.

For the compound `Cc1nc(C(=O)Nc2ccc(C3CNCCO3)cc2)cs1` (racemic) [Example 217, (RS)-2-Methyl-N-(4-(morpholin-2-yl)phenyl)thiazole-4-carboxamide hydrochloride], the inhibition constant (Ki) is 0.0941 µM in experiment [1] (setting [3]) and 0.335 µM in experiment [2] (setting [4]).

Take `O=C(Nc1ccc([C@H]2CCCNC2)cc1)c1cccc(Cl)c1` [Example 151, (R)-3-Chloro-N-(4-(piperidin-3-yl)phenyl)benzamide hydrochloride]: the Ki turned out to be 0.0008 µM in experiment [1] (setting [3]) and 0.011 µM in experiment [2] (read-out: Ki (μM) mouse).

Turning to `O=C(Nc1ccc(C2CCCNC2)cc1)Nc1ccc(Cl)nc1` (racemic) [Example 79, (RS)-1-(6-Chloro-pyridin-3-yl)-3-(4-piperidin-3-yl-phenyl)-urea hydrochloride], the Ki in experiment [1] (setting [3]) worked out at 0.0924 µM; in experiment [2] (setting [4]), 0.0075 µM.

With `Cc1cc(C(=O)Nc2ccc(C3CNCCO3)cc2)ccn1` (racemic) [Example 294, (RS)-2-Methyl-N-(4-(morpholin-2-yl)phenyl)isonicotinamide dihydrochloride], the Ki in experiment [1] (setting [3]) was 0.0226 µM; in experiment [2] (setting [4]) it was 1.18 µM.

As for `O=C(Nc1ccc([C@H]2CNCCO2)cc1)c1ccc(Cl)cc1I` [Example 301, (S)-4-Chloro-2-iodo-N-(4-(morpholin-2-yl)phenyl)benzamide], the Ki was found to be 0.007 µM in experiment [1] (setting [3]) and 0.0509 µM in experiment [2] (setting [4]).

For the compound `O=C(Nc1ccc([C@H]2CNCCO2)cc1)c1cc(Cl)nc(Cl)c1` [Example 271, (S)-2,6-Dichloro-N-(4-(morpholin-2-yl)phenyl)isonicotinamide hydrochloride], the results for the inhibition constant (Ki) in experiment [1] (read-out: Ki (μM) rat) and in experiment [2] (read-out: Ki (μM) mouse) were 0.004 µM and 0.0067 µM, respectively.

For the compound `O=C(Nc1ccc(C2CCNC2)cc1)Nc1ccc(Cl)cn1` (racemic) [Example 44, (RS)-1-(5-Chloro-pyridin-2-yl)-3-(4-pyrrolidin-3-yl-phenyl)-urea hydrochloride], the results for the Ki in experiment [1] (setting [3]) and in experiment [2] (setting [4]) were 0.0022 µM and 0.0013 µM, respectively.

For the compound `COc1ccc2nc(C(=O)Nc3ccc(C4CCNC4)cc3)ccc2c1` (racemic) [Example 91, (RS)-6-Methoxy-quinoline-2-carboxylic acid (4-pyrrolidin-3-yl-phenyl)-amide hydrochloride], the Ki in experiment [1] (setting [3]) is 0.0223 µM; in experiment [2] (setting [4]), 0.0039 µM.

In the case of `O=C(Nc1ccc(C2CNCCO2)cc1)Nc1cccc(Cl)c1` (racemic) [Example 303, (RS)-1-(3-Chlorophenyl)-3-(4-(morpholin-2-yl)phenyl)urea hydrochloride], the Ki was 0.0005 µM in experiment [1] (setting [3]) and 0.002 µM in experiment [2] (setting [4]).

As for `O=C(Nc1ccc(C2CNCCO2)cc1)c1ccc(OC2CCOCC2)nc1` (racemic) [Example 232, (RS)—N-(4-(Morpholin-2-yl)phenyl)-6-(tetrahydro-2H-pyran-4-yloxy)nicotinamide hydrochloride], the figures for the Ki in experiment [1] (setting [3]) and in experiment [2] (setting [4]) were 0.0317 µM and 0.15 µM, respectively.

Regarding `N#Cc1cccc(CC(=O)Nc2ccc(C3CCNC3)cc2)c1` (racemic) [Example 66, (RS)-2-(3-Cyano-phenyl)-N-(4-pyrrolidin-3-yl-phenyl)-acetamide], the Ki in experiment [1] (setting [3]) was found to be 0.645 µM; in experiment [2] (setting [4]), 0.137 µM.

In the case of `O=C(Nc1ccc(C2CCNC2)cc1)Oc1ccccc1` (racemic) [Example 11, (RS)-(4-Pyrrolidin-3-yl-phenyl)-carbamic acid phenyl ester hydrochloride], the results for the Ki in experiment [1] and in experiment [2] were 0.0315 µM and 0.0065 µM, respectively.

Consider `N#Cc1ccc(C(=O)Nc2ccc(C3CNCCO3)cc2)cn1` (racemic) [Example 194, (RS)-2-(4-(6-cyanonicotinamido)phenyl)morpholin-4-ium chloride], for which the Ki is 0.005 µM in experiment [1] (setting [3]) and 0.0982 µM in experiment [2] (setting [4]).
